Reference: patent US10155021B2, “Antimicrobial 4-oxoquinolizines” (Emergent Product Development Gaithersburg Inc., priority 2011, dated 2018)
Read-outs that look alike come from different tables or passages of the source.

Columns and labels:
A. baumannii J2 [1] = assay: Preliminary MBC without and with sub-inhibitory polymyxin B (Example 4); format: cell-based, Acinetobacter baumannii; conditions: Acinetobacter baumannii, J2, A. baumannii J2, without polymyxin B, preliminary MBC, read-out: MBC without PB
A. baumannii A 401 = assay: MIC determination for Acinetobacter strains (Example 3); format: cell-based; conditions: A401, LEV R, CIP R, AMK R, TET R
A. baumannii A472 [2] = assay: Preliminary MBC without and with sub-inhibitory polymyxin B (Example 4); format: cell-based, Acinetobacter baumannii; conditions: Acinetobacter baumannii, A472, A. baumannii A472, without polymyxin B, read-out: MBC without PB
E. coli CTX-M-15 = assay: MIC, panel of quinolone-resistant strains (CLSI); format: cell-based; conditions: Escherichia coli, CTXM15; CIP R, ESBL
A. baumannii A390 = assay: Preliminary MBC without and with sub-inhibitory polymyxin B (Example 4); format: cell-based, Acinetobacter baumannii; conditions: Acinetobacter baumannii, A390, A. baumannii A390, without polymyxin B, preliminary MBC, read-out: MBC without PB
A. baumannii J2 [3] = assay: MIC without and with sub-inhibitory polymyxin B (Example 4); format: cell-based, Acinetobacter baumannii; conditions: Acinetobacter baumannii, J2, A. baumannii J2, without polymyxin B, read-out: MIC without PB
A. baumannii A472 [4] = assay: MIC determination for Acinetobacter strains (Example 3); format: cell-based; conditions: LEV R, CIP R, MRP I, IMP I, AMK R, TET R
A. baumannii A489 [5] = assay: MIC without and with sub-inhibitory polymyxin B (Example 4); format: cell-based, Acinetobacter baumannii; conditions: Acinetobacter baumannii, A489, A. baumannii A489, without polymyxin B, read-out: MIC without PB
A. baumannii A489 [6] = assay: Preliminary MBC without and with sub-inhibitory polymyxin B (Example 4); format: cell-based, Acinetobacter baumannii; conditions: Acinetobacter baumannii, A489, A. baumannii A489, without polymyxin B, read-out: MBC without PB
A. baumannii A473 [7] = assay: MIC without and with sub-inhibitory polymyxin B (Example 4); format: cell-based, Acinetobacter baumannii; conditions: Acinetobacter baumannii
[8] = test system: resistant strains of A. baumannii and one strain of Acinetobacter sp.; assay: MIC without and with sub-inhibitory polymyxin B, whole panel / MIC ranges (Example 4; also strains not listed separately); format: cell-based; conditions: Acinetobacter baumannii
E. coli 2906 = assay: MIC, panel of quinolone-resistant strains (CLSI); format: cell-based; conditions: Escherichia coli, CIP R
[9] = test system: Acinetobacter sp. (H064200250); assay: Preliminary MBC without and with sub-inhibitory polymyxin B (Example 4); format: cell-based; conditions: Acinetobacter, without polymyxin B, preliminary MBC, read-out: MBC without PB
Summary of the method: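 Plates were incubated for 18-20 hours at 37° C. MBC was taken as the lowest concentration giving colony growth ca. 90% below the positive control, typically where only single colonies or none appeared.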

[10] = test system: Acinetobacter sp. (H064200250); assay: MIC without and with sub-inhibitory polymyxin B (Example 4); format: cell-based; conditions: Acinetobacter
A. baumannii A329 [11] = assay: as above; format: cell-based, Acinetobacter baumannii; conditions: Acinetobacter baumannii
Klebsiella ssp KPC-3 = assay: MIC, panel of quinolone-resistant strains (CLSI); format: cell-based, Klebsiella spp; conditions: KPC3, CIP R, ESBL
A. baumannii A401 = assay: MIC without and with sub-inhibitory polymyxin B (Example 4); format: cell-based, Acinetobacter baumannii; conditions: Acinetobacter baumannii, A401, A baumannii A 401, without polymyxin B, read-out: MIC without PB
P. aeruginosa 143-3-03 = assay: MIC, panel of quinolone-resistant strains (CLSI); format: cell-based; conditions: Pseudomonas aeruginosa, 143303; CIP I, POL R
P. aeruginosa 1388-3-02 = assay: MIC, panel of quinolone-resistant strains (CLSI); format: cell-based; conditions: Pseudomonas aeruginosa, 1388302; CIP R, POL R
A. baumannii A329 [12] = assay: MIC determination for Acinetobacter strains (Example 3); format: cell-based; conditions: LEV R, CIP R, MRP R, IMP R, AMK R, TET R
A. baumannii ATCC 19606 = assay: MIC without and with sub-inhibitory polymyxin B (Example 4); format: cell-based, Acinetobacter baumannii; conditions: Acinetobacter baumannii, ATCC19606, A. baumannii ATCC 19606; without polymyxin B; 2nd experiment; visual reading; read-out: MIC without PB
Pseudomonas ssp PER-1 = assay: MIC, panel of quinolone-resistant strains (CLSI); format: cell-based, Pseudomonas spp; conditions: PER1, CIP R, ESBL
A. baumannii A473 [13] = assay: Preliminary MBC without and with sub-inhibitory polymyxin B (Example 4); format: cell-based, Acinetobacter baumannii; conditions: Acinetobacter baumannii, A473, A. baumannii A473, without polymyxin B, read-out: MBC without PB
A. baumannii A472 [14] = assay: MIC without and with sub-inhibitory polymyxin B (Example 4); format: cell-based, Acinetobacter baumannii; conditions: Acinetobacter baumannii, A472, A. baumannii A472, without polymyxin B, read-out: MIC without PB

Cc1c(-c2cc(F)c(N)cc2F)ccn2c(=O)c(C(=O)O)cc(C3CC3)c12 [Compound 2, 8-(3,6-difluoro-4-amino-phenyl)-1-cyclopropyl-9-methyl-4-oxo-quinolizine-3-carboxylic acid]
16 µg/mL: MBC (A. baumannii A390; 2nd experiment) | MIC (Pseudomonas ssp PER-1)
4 µg/mL: MBC (A. baumannii J2 [1]; 1st experiment) | MIC (A. baumannii A 401) | MBC (A. baumannii A472 [2]; 1st experiment) | MIC (A. baumannii J2 [3]; 1st experiment) | MIC (A. baumannii J2 [3]; 2nd experiment, visual reading) | MIC (A. baumannii A472 [4]) | MIC (A. baumannii A489 [5]; 2nd experiment, visual reading) | MBC (A. baumannii A489 [6]; 2nd experiment) | MIC (A. baumannii A473 [7]; A473, A. baumannii A473, without polymyxin B, 2nd experiment, visual reading, read-out: MIC without PB) | MBC ([9]; Acinetobacter spp. H064200250, 1st experiment) | MIC ([10]; Acinetobacter spp. H064200250 (OXA51), without polymyxin B, 2nd experiment, visual reading, read-out: MIC without PB) | MIC ([10]; Acinetobacter spp. H064200250, without polymyxin B, 1st experiment, read-out: MIC without PB) | MIC (A. baumannii A401; 1st experiment) | MIC (A. baumannii A401; 2nd experiment, visual reading) | MBC (A. baumannii A473 [13]; 2nd experiment) | MIC (A. baumannii A472 [14]; 1st experiment) | MIC (A. baumannii A472 [14]; 2nd experiment, visual reading)
8 µg/mL: MBC (A. baumannii J2 [1]; 2nd experiment) | MBC (A. baumannii A472 [2]; 2nd experiment) | MBC (A. baumannii A390; 1st experiment) | MIC (A. baumannii A473 [7]; A473, A. baumannii A473, without polymyxin B, 1st experiment, read-out: MIC without PB) | MBC ([9]; Acinetobacter spp. H064200250 (OXA51), 2nd experiment) | MIC (A. baumannii A329 [11]; A329, A. baumannii A329, without polymyxin B, 1st experiment, read-out: MIC without PB) | MIC (A. baumannii A329 [11]; A329, A. baumannii A329, without polymyxin B, 2nd experiment, visual reading, read-out: MIC without PB) | MIC (Klebsiella ssp KPC-3) | MIC (P. aeruginosa 1388-3-02) | MIC (A. baumannii A329 [12])
32 µg/mL: MIC (E. coli 2906)
> 32 µg/mL: MIC (E. coli CTX-M-15)
1 to 16 µg/mL: MIC ([8]; without polymyxin B, 2nd experiment, 11 strains, read-out: MIC range without PB 14-10-2008 n = 11)
1 µg/mL: MIC (A. baumannii A329 [11]; A329, read-out: MIC +0.06 μg/ml PB, read with alamar blue, A. baumannii A329, +0.06 μg/ml polymyxin B, 2nd experiment, MIC read with alamar blue)
0.125 µg/mL: MIC (A. baumannii A473 [7]; A473, read-out: MIC +0.06 μg/ml PB, read with alamar blue, A. baumannii A473, +0.06 μg/ml polymyxin B, 2nd experiment, MIC read with alamar blue) | MIC (A. baumannii ATCC 19606)
2 µg/mL: MIC (A. baumannii A489 [5]; 1st experiment) | MBC (A. baumannii A489 [6]; 1st experiment) | MIC (P. aeruginosa 143-3-03) | MBC (A. baumannii A473 [13]; 1st experiment)
0.5 to 16 µg/mL: MIC ([8]; read-out: MIC range without PB 01-10-2008 n = 8, without polymyxin B, 1st experiment, 8 strains)
0.06 µg/mL: MIC ([10]; read-out: MIC +[…] PB, read with alamar blue, Acinetobacter spp. H064200250 (OXA51), +[…] polymyxin B, 2nd experiment, MIC read with alamar blue)
